US20240124445A1, “BENZENE RING COMPOUND AND USE THEREOF” (NANJING SHIJIANG MEDICINE TECHNOLOGY CO., LTD, priority 2020, published 2024)
Read-outs that look alike come from different tables or passages of the source.

Key:
[1] = test system: SF-126; experiment: Cell viability (CellTiter-Glo) of SF-126; format: cell-based; conditions: Homo sapiens, 72 h; SF-126, 3 days of culture
Procedure: (§1) Cell viability was detected using the Promega CellTiter-Glo kit, the kit reflected cell viability by directly measuring intracellular ATP content. In the experiment, the IC50 value of different compounds on different tumor cell lines was detected to determine cell lines that were sensitive or insensitive to different compounds.
(§2) Tumor cells were cultured in 10% FBS-containing medium (+p/s), and incubated for 3 h or the following day, then the gradient diluted compound was added. After 3 days of culture, the relevant IC50 (50% inhibiting concentration) was measured. The name, source and culture conditions of each tumor cell line were as follows: […]

[2] = test system: SW48; experiment: Cell viability (CellTiter-Glo) of SW48; format: cell-based; conditions: Homo sapiens
Procedure: (§3) Cell viability was detected using the Promega CellTiter-Glo kit, the kit reflected cell viability by directly measuring intracellular ATP content. Different cancer cells was cultured in medium, the 50% inhibiting concentration (IC50) of compound AB24852 on cancer cells was determined using Promega CellTiter-Glo kit. The name, source and culture conditions of each tumor cell line were as follows:
Cell line SW48 (ATCC, No. CCL-231) was cultured in 10% fetal bovine serum-containing Leibovitz's L-15 medium (+P/S).
as §1, §2

[3] = test system: MDA-MB-453; experiment: Cell viability (CellTiter-Glo) of MDA-MB-453; format: cell-based; conditions: Homo sapiens
Procedure: as §3
Cell line MDA-MB-453 (ATCC, No. HTB-131) was cultured in 10% fetal bovine serum-containing Leibovitz's L-15 medium (+P/S).
as §1, §2

[4] = test system: NCI-H82 cell; experiment: Cell viability (Promega CellTiter-Glo) of NCI-H82 cell; format: cell-based; conditions: Homo sapiens
Procedure: Cell viability was detected using the Promega CellTiter-Glo kit, the kit reflected cell viability by directly measuring intracellular ATP content. Small cell lung cancer cell NCI-H82 (ATCC, No. HTB-175) was cultured in 10% fetal bovine serum-containing RPMI1640 medium (+P/S).
(§4) Cell viability was detected using the Promega CellTiter-Glo kit, the kit reflected cell viability by directly measuring intracellular ATP content.
(§5) Daoy cell was cultured in 10% fetal bovine serum-containing DMEM medium (+P/S), and NCI-H82 cell was cultured in 10% fetal bovine serum-containing RPMI1640 medium (+P/S).
as §1
(§6) Tumor cells were cultured in 10% FBS-containing medium (+p/s), and incubated for 3 h or the following day, then the gradient diluted compound was added. After 3 days of culture, the relevant IC50 (50% inhibiting concentration) was measured. The name, source and culture conditions of each tumor cell line were as follows:
Cell line NCI-H82 (ATCC, No. HTB-175) was cultured in 10% fetal bovine serum-containing RPMI1640 medium (+P/S).

[5] = test system: CFPAC-1; experiment: Cell viability (CellTiter-Glo) of CFPAC-1; format: cell-based; conditions: Homo sapiens, 72 h; CFPAC-1, 3 days of culture
Procedure: as §1, §6
Cell line CFPAC-1 (ATCC, No. CRL-1918) was cultured in 10% fetal bovine serum-containing IMDM medium (+P/S).

[6] = test system: 786-O; experiment: Cell viability (CellTiter-Glo) of 786-O; format: cell-based; conditions: Homo sapiens, 786-0, 72 h, 3 days of culture
Procedure: as §1, §6
Cell line 786-0 (ATCC, No. CRL-1932) was cultured in 10% fetal bovine serum-containing RPMI1640 medium (+P/S).

[7] = test system: G-401; experiment: Cell viability (CellTiter-Glo) of G-401; format: cell-based; conditions: Homo sapiens
Procedure: as §3
Cell line G-401 (ATCC, No. CRL-1441) was cultured in 10% fetal bovine serum-containing McCoy's 5a medium (+P/S).
as §1, §2

[8] = Stability in human liver microsome; format: in vitro ADME; conditions: liver microsomes, pH 7.4, 1.5 μM drug solution, NADPH, 37° C., read-out: Human T1/2
Procedure: Vortexing for 10 min, the sample was centrifuged with 5594×g for 15 min in centrifuger (Thermo Multifuge×3R). • 10) taking 50 μL supernatant from the centrifuged sample, transferred to 96 well sample plate contain 50 μL water, mixed, and the sample was analyzed using LC-MS/MS.

[9] = test system: GB-1; experiment: Cell viability (CellTiter-Glo) of GB-1; format: cell-based; conditions: Homo sapiens, 72 h; GB-1, 3 days of culture
Procedure: as §1, §6
Cell line GB-1 (JCRB, No. IF050489) was cultured in 10% fetal bovine serum-containing DMEM medium (+P/S).

[10] = test system: A-375; experiment: Cell viability (CellTiter-Glo) of A-375; format: cell-based; conditions: Homo sapiens; A-375, melanoma
Procedure: as §3
Cell line A-375 (ATCC, No. CRL-1619) was cultured in 10% fetal bovine serum-containing DMEM medium (+P/S).

[11] = test system: SU-DHL-2; experiment: Cell viability (CellTiter-Glo) of SU-DHL-2; format: cell-based; conditions: Homo sapiens; SU-DHL-2, lymphoma
Procedure: as §3
Cell line SU-DHL-2 (ATCC, No. CRL-2956) was cultured in 10% fetal bovine serum-containing RPMI1640 medium (+P/S).

[12] = test system: SNU-398; experiment: Cell viability (CellTiter-Glo) of SNU-398; format: cell-based; conditions: Homo sapiens; SNU-398, liver cancer
Procedure: as §3
Cell line SNU-398 (ATCC, number CRL-2233) was cultured in 10% fetal bovine serum-containing RPMI1640 medium (+P/S).

[13] = test system: 22RV1; experiment: Cell viability (CellTiter-Glo) of 22RV1; format: cell-based; conditions: Homo sapiens; 22RV1, prostatic cancer
Procedure: as §3
Cell line 22RV1 (ATCC, No. CRL-2505) was cultured in 10% fetal bovine serum-containing RPMI1640 medium (+P/S).

[14] = test system: OCI-AML-4; experiment: Cell viability (CellTiter-Glo) of OCI-AML-4; format: cell-based; conditions: OCI-AML-4, leukemia
Procedure: as §3
Cell line OCI-AML-4 (DSMZ, No. ACC-729) was cultured in alpha-MEM medium containing 20% fetal bovine serum and 20% volume fraction of 5637 cell line adjusted medium (+P/S).

[15] = test system: MIA PaCa-2; experiment: Cell viability (CellTiter-Glo) of MIA PaCa-2; format: cell-based; conditions: Homo sapiens; MIA PaCa-2, pancreatic cancer
Procedure: as §3
Cell line MIA PaCa-2 (ATCC, No. CRL-1420) was cultured in 10% fetal bovine serum-containing DMEM medium (+P/S).

[16] = test system: NCI-H1048; experiment: Cell viability (CellTiter-Glo) of NCI-H1048; format: cell-based; conditions: Homo sapiens; NCI-H1048, lung cancer
Procedure: as §3
Cell line NCI-H1048 (ATCC, No. CRL-5853) was cultured in 5% fetal bovine serum-containing HITES medium (+P/S).

[17] = test system: Daoy cell; experiment: Cell viability (CellTiter-Glo) of Daoy cell with or without CsA; format: cell-based; conditions: Homo sapiens
Procedure: as §4, §5

[18] = test system: mitochondria permeability transition pore; experiment: Mitochondria membrane potential difference by TMRM in NCI-H82 cell; format: cell-based, human; conditions: H2O2 +, CsA none
[19] = test system: mitochondria permeability transition pore; experiment: Mitochondria membrane potential difference by TMRM in Daoy cell; format: cell-based, human; conditions: H2O2 +, CsA none
[20] = 72 h, SW48, 3 days of culture, Table 5, read-out: IC50 SW48
[21] = 72 h, MDA-MB-453, 3 days of culture, Table 5, read-out: IC50 MDA-MB-453
[22] = 72 h, NCI-H82, 3 days of culture, Table 5, read-out: IC50 NCI-H82
[23] = NCI-H82 cell, Table 1, read-out: IC50
[24] = 72 h, G-401, 3 days of culture, Table 5, read-out: IC50 G-401
[25] = NCI-H82, read-out: IC50 NCI-H82 cell without CsA
[26] = read-out: IC50 Daoy cell with CsA
[27] = read-out: IC50 Daoy cell without CsA

SMILES	IC50 [1]	IC50 [2, 20]	IC50 [3, 21]	IC50 [4, 22]	IC50 [4, 23]	IC50 [5]	IC50 [6]	IC50 [7, 24]	half-life at 1 µM [8]	IC50 [9]	IC50 [4, 25]	IC50 [17, 26]	IC50 [17, 27]	also measured
O=C(C[n+]1ccc(NCc2ccccc2)cc1)c1cccc(Cl)c1 [AB24805A]	3180 nM	760 nM	210 nM	370 nM	370 nM	35700 nM	46500 nM	420 nM	3.71 h	3430 nM	–	–	–	–
O=C(C[n+]1ccc(NCc2ccccc2)cc1)c1ccc(Br)cc1 [AB24808A]	2980 nM	1780 nM	360 nM	610 nM	610 nM	20000 nM	44000 nM	910 nM	5.69 h	5270 nM	–	–	–	–
O=C(C[n+]1ccc(NCc2ccccc2)cc1)c1ccc(C(F)(F)F)cc1 [AB24809A]	37500 nM	7640 nM	1770 nM	2430 nM	2430 nM	> 50000 nM	> 50000 nM	3030 nM	6.64 h	> 50000 nM	–	–	–	–
O=C(C[n+]1ccc(NCc2ccccc2)cc1)c1ccc(OC(F)(F)F)cc1 [AB24810A]	13100 nM	2130 nM	2690 nM	1340 nM	1340 nM	36000 nM	> 50000 nM	1950 nM	65.2 h	24500 nM	–	–	–	–
O=C(C[n+]1ccc2[nH]cc(Cc3ccccc3)c2c1)c1ccc(Cl)cc1 [AB24833A]	21600 nM	8160 nM	5300 nM	–	–	24800 nM	45400 nM	5300 nM	–	22000 nM	–	–	–	IC50 ([4]; NCI-H82): 3380 nM; IC50 ([4]; NCI-H82, 72 h, read-out: IC50 NCI-H82): 3380 nM
O=C1c2ccc(Cl)cc2CCC1[n+]1ccc(NCc2ccccc2)cc1 (stereo not drawn) [AB24841A]	10800 nM	800 nM	620 nM	590 nM	590 nM	35700 nM	> 50000 nM	630 nM	20.4 h	16400 nM	–	–	–	–
Cc1ccc(C(=O)C[n+]2ccc(NCc3ccccc3)cc2)cc1 [AB24845A]	2280 nM	140 nM	190 nM	120 nM	120 nM	29400 nM	38600 nM	300 nM	–	4370 nM	–	–	–	–
Cc1ccc(C(=O)C[n+]2ccc(NCc3ccccc3)nc2)cc1 [AB24846]	3610 nM	2050 nM	820 nM	510 nM	510 nM	36400 nM	47300 nM	690 nM	–	12300 nM	–	–	–	–
O=C(C[n+]1ccc(NCc2ccccc2)cc1)c1cccc([N+](=O)[O-])c1 [AB24852]	> 50000 nM	720 nM	220 nM	1460 nM	1460 nM	> 50000 nM	> 50000 nM	1020 nM	1.78 h	> 50000 nM	–	–	–	IC50 [10]: 1300 nM; IC50 ([2]; SW48, intestine cancer, Table 2, read-out: IC50): 700 nM; IC50 [11]: 300 nM; IC50 ([3]; MDA-MB-453, breast cancer, Table 2, read-out: IC50): 200 nM; IC50 [12]: 1700 nM; IC50 [13]: 2300 nM; IC50 [14]: 800 nM; IC50 [15]: 700 nM; IC50 [16]: 1100 nM; IC50 ([7]; G-401, renal carcinoma, Table 2, read-out: IC50): 1000 nM
O=C1c2cc(Cl)ccc2CCC1[n+]1ccc2c(ccn2Cc2ccccc2)c1 (stereo not drawn) [AB27124]	–	–	–	–	30 nM	–	–	–	1.77 h	–	–	–	–	–
O=C1c2cc(C(F)(F)F)ccc2CCC1[n+]1ccc2c(ccn2Cc2ccccc2)c1 (stereo not drawn) [AB27125]	–	–	–	–	110 nM	–	–	–	14.2 h	–	110 nM	190 nM	1460 nM	–
O=C1c2cc(OC(F)(F)F)ccc2CCC1[n+]1ccc2c(ccn2Cc2ccccc2)c1 (stereo not drawn) [AB27126]	–	–	–	–	150 nM	–	–	–	20.8 h	–	150 nM	280 nM	1950 nM	–
O=C1c2cc(Cl)ccc2CCC1[n+]1ccc2c(c1)CCC(c1ccccc1)N2 (stereo not drawn) [AB27130]	–	–	–	–	770 nM	–	–	–	5.96 h	–	770 nM	310 nM	5500 nM	–
O=C1c2cc(C(F)(F)F)ccc2CCC1[n+]1ccc2c(c1)CCC(c1ccccc1)N2 (stereo not drawn) [AB27131]	–	–	–	–	440 nM	–	–	–	6.81 h	–	440 nM	710 nM	4750 nM	–
CC(c1ccccc1)[n+]1ccc2c(ccn2C2CCc3ccc(Cl)cc3C2=O)c1 (stereo not drawn) [AB27141]	–	–	–	–	10 nM	–	–	–	4.85 h	–	10 nM	28 nM	> 1000 nM	–
Cc1cn(Cc2ccccc2)c2cc[n+](C3CCc4ccc(Cl)cc4C3=O)cc12 (stereo not drawn) [AB27142]	–	–	–	–	60 nM	–	–	–	12.4 h	–	–	–	–	–
O=C1c2cc(C(F)(F)F)ccc2CCC1[n+]1ccc(NCc2ccccc2)cc1 (stereo not drawn) [AB27144]	–	–	–	–	160 nM	–	–	–	75.2 h	–	160 nM	210 nM	1020 nM	–
O=C1c2cc(OC(F)(F)F)ccc2CCC1[n+]1ccc(NCc2ccccc2)cc1 (stereo not drawn) [AB27156]	–	–	–	–	260 nM	–	–	–	17.5 h	–	260 nM	240 nM	1050 nM	–
OO [Compound H2O2]	–	–	–	–	–	–	–	–	–	–	–	–	–	Relative TMRM signal intensity, mean value [18]: 119%; Relative TMRM signal intensity, mean value [19]: 82%
